Results: patent publication US7652022B2, “Diaryl urea derivatives useful for the treatment of protein kinase dependent diseases” (Novartis AG, priority 2002, dated 2010)

Each molecule was assayed against T1, c-Abl kinase (His-tagged kinase domain of c-Abl) (Homo sapiens, UniProt P00519) (assay: c-Abl protein-tyrosine kinase in vitro enzyme filter binding assay). Settings: % inhibition at 10 μM.
T1 construct: The His-tagged kinase domain of c-Abl is cloned and expressed in the baculovirus/Sf9 system; His tag; made in house; host or cells: Sf9 insect cells (baculovirus)
T1 sequence (P00519 242-493 limits assumed): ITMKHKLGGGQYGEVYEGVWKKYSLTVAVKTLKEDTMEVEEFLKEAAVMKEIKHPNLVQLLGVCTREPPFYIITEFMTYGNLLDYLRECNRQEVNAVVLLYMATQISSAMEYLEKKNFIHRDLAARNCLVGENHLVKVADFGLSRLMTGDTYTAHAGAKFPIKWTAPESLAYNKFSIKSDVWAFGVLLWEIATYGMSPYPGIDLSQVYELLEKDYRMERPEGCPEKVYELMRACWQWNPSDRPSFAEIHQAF
Assay type: biochemical
Protocol: An in vitro enzyme assay is performed in 96-well plates as a filter binding assay as described by Geissler et al. in Cancer Res. 1992; 52:4492-4498, with the following modifications. The His-tagged kinase domain of c-Abl is cloned and expressed in the baculovirus/Sf9 system as described by Bhat et al. in J. Biol. Chem. 1997; 272:16170-16175. A protein of 37 kD (c-Abl kinase) is purified by a two-step procedure over a Cobalt metal chelate column followed by an anion exchange column with a yield of 1-2 mg/L of Sf9 cells (Bhat et al., reference cited). The purity of the c-Abl kinase is >90% as judged by SDS-PAGE after Coomassie blue staining. The assay contains (total volume of 30 μL): c-Abl kinase (50 ng), 20 mM Tris·HCl, pH 7.5, 10 mM MgCl2, 10 μM Na3VO4, 1 mM DTT and 0.06 μCi/assay [γ^33 P]-ATP (5 μM ATP) using 30 μg/mL poly-Ala,Glu,Lys,Tyr-6:2:5:1 (Poly-AEKY, Sigma P1152) in the presence of 1% DMSO. Reactions are terminated by adding 10 μL of 250 mM EDTA and 30 μL of the reaction mixture is transferred onto Immobilon-PVDF membrane (Millipore, Bedford, Mass., USA) previously soaked for 5 min with methanol, rinsed with water, then soaked for 5 min with 0.5% H3PO4 and mounted on vacuum manifold with disconnected vacuum source. After spotting all samples, vacuum is connected and each well rinsed with 200 μL 0.5% H3PO4. Membranes are removed and washed on a shaker with 0.5% H3PO4 (4 times) and once with ethanol. Membranes are counted after drying at ambient temperature, mounting in Packard TopCount 96-well frame, and addition of 10 μL/well of Microscint™ (Packard).
Enzymatic (c-Abl, KDR, Flt3) data are given on Table 17 (% inhibition at 10 μM). (Measurements are made as described above in the general description).

SMILES | c-Abl (% at 10 μM) [%]
Cc1ccc(NC(=O)Nc2ccc(Oc3ccncc3)cc2)cc1 [Example 4] | 59
CCc1ccc(NC(=O)N(C)c2ccc(Oc3ccncc3)cc2)cc1 [Example 5] | 46
CN(C(=O)Nc1cccc(C(F)(F)F)c1)c1ccc(Oc2ccncc2)cc1 [Example 6] | 75
CCCc1ccc(NC(=O)N(C)c2ccc(Oc3ccncc3)cc2)cc1 [Example 7] | 47
Cc1ccc(NC(=O)N(C)c2ccc(Oc3ccncc3)cc2)cc1 [Example 8] | 48
O=C(Nc1ccc(Oc2ccncc2)cc1)Nc1ccc(Br)c(C(F)(F)F)c1 [Example 9] | 100
O=C(Nc1ccc(Oc2ccncc2)cc1)Nc1ccc(OCC(F)(F)F)c(C(F)(F)F)c1 [Example 10] | 98
COc1cc(NC(=O)Nc2ccc(Oc3ccncc3)cc2)cc(C(F)(F)F)c1 [Example 11] | 95
CCCc1ccc(NC(=O)Nc2ccc(Cc3ccncc3)cc2)cc1 [Example 12] | 33
CCc1ccc(NC(=O)Nc2ccc(Cc3ccncc3)cc2)cc1 [Example 13] | 36
Cc1ccc(NC(=O)Nc2ccc(Cc3ccncc3)cc2)cc1 [Example 14] | 26

The next lines start with the values.

c-Abl (% at 10 μM) [%] | SMILES
71 | O=C(Nc1ccc(Cc2ccncc2)cc1)Nc1cccc(C(F)(F)F)c1 [Example 15]
66 | CCc1ccc(NC(=O)Cc2ccc(Oc3ccncc3)cc2)cc1 [Example 16, N-(4-pyridin-4-yl-oxy-phenyl)acetyl-(4-ethyl-phenyl)-amide]
18 | Cc1ccc(NC(=O)Cc2ccc(Oc3ccncc3)cc2)cc1 [Example 17]
61 | CCCc1ccc(NC(=O)Cc2ccc(Oc3ccncc3)cc2)cc1 [Example 18]
92 | O=C(Nc1cccc(C(F)(F)F)c1)N1CCc2cc(Oc3ccncc3)ccc21 [Example 19, 5(4-pyridyloxy)-N-(3-trifluoromethyl-phenyl)amino-carbonyl-2,3-dihydroindole]
84 | O=C(Nc1cccc(C(F)(F)F)c1)N1CCCc2cc(Oc3ccncc3)ccc21 [Example 20]
70 | O=C(Nc1ccc(Oc2cc(Cl)ncn2)cc1)Nc1cccc(C(F)(F)F)c1 [Example 21, N-(4-(6-Chloropyrimidin-4-yl)-oxyphenyl)-N′-(3-trifluoromethylphenyl)-urea]
100 | Cc1cc(Oc2ccc(NC(=O)Nc3cccc(C(F)(F)F)c3)cc2)ccn1 [Example 30]
98 | O=C(Nc1ccc(Oc2cc(Nc3ccc(O)cc3)ncn2)cc1)Nc1ccc(OCC(F)(F)F)c(C(F)(F)F)c1 [Example 32]
